How the values were obtained:
[1] = Photostabilization of Guaiazulene in ethanolic solution under sun simulator; assay type: physicochemical; settings: for Relative absorption of Guaiazulene at 600 nm (%): ethanolic solution, sun simulator
Procedure: (§1) In Solution: Solutions in ethanol are prepared at respective concentrations of photosensitive materials and photostabilizer (typically 1:1 to 1:5 in weight %). […] The amount of photosensitive materials remaining in solution is calculated from the ratio of their maximal absorption band (λmax), before and after irradiation.
(§2) Amount of energy: 10 mJoules/Cm^2=1 MED
Photostabilization Results of Guaiazulene in Ethanolic Solution

[2] = Singlet oxygen quenching (RNO bleaching at 440 nm, methylene blue sensitizer, UV A); assay type: biochemical; settings: for Singlet oxygen scavenging behaviour: FIG. 3; for IC50% (μg/ml), singlet oxygen quenching ability: RNO bleaching at 440 nm, 20 min UV A
Procedure: A solution of N,N-dimethyl-p-nitrosoaniline (RNO) and histidine and a known sensitizer (e.g. methylene blue) is exposed to UV A. Singlet oxygens generated under UV A induce a bleaching of RNO which can be measured spectrophotometrically at 440 nm. The efficiency of test products in terms of singlet oxygen scavenging is measured at 440 nm for various concentrations.
All measurements were performed at room temperature (24 C) with a Beckman Coulter DU-640 spectrophotometer at a scan speed of 120 nm/min with a spectral range from 300 to 700 nm.
150, Sigma-Aldrich • RNO (19 mg) dissolved in 50 ml of Buffer solution subsequent dilution by factor 25 in de-ionized water. • L-Histidine Solution (40 mM) • Mol. Wt. […] 320, Sigma-Aldrich • 5 mg are dissolved in distilled water (100 ml) subsequent dilution at 6.4 ml in 25 ml of de-ionized water. b) Antioxidant Solutions: • Ascorbic acid (0.5 mM) • Mol. Wt.
The stock solutions were added in an orderly manner with quantities according to the table below as to obtain a final total volume of 4.5 ml for each preparation. First, the RNO buffered solution was taken, followed by addition of L-Histidine and the sensitizer Methylene Blue. Then, the antioxidant solution was added and topped off to 4.5 ml total volume with buffer solution. This preparation was exposed to UV A radiation (˜35 W/m^2) for 20 min to generate singlet oxygens. The light absorption spectra were then recorded and the optical density measured at 440 nm (corresponding to RNO). The inverse of the light absorbances at 440 nm is then plotted as a function of the concentration in antioxidant.

[3] = Photostability of β carotene in lotion at room temperature, visible light, one month; settings: room temperature storage
[4] = Photostabilization and color change of Vanillin in ethanolic solution under sun simulator; assay type: physicochemical; settings: for Relative absorption of Vanillin at 281 nm (%): ethanolic solution; for Color change of Vanillin in solution (new light absorption band around 390 nm, yellow color): with and without stabilizer, FIG. 1
Procedure: as §1, §2
Photostabilization Results of Vanillin in Ethanolic Solution
Color Change of Vanillin in Solution Under Sun Simulator With and Without Diethylhexyl Syringylidene Malorate in Solution
Photostabilization Results of Vanillin in Ethanolic Solution with isoamyl-alpha-acetyl-3,5-dimethoxy-4-hydroxy cinnamate

[5] = Color change of Menthyl anthranilate in solution under sun simulator; assay type: physicochemical; settings: menthyl anthranilate:stabilizer 1:5, FIG. 2
Procedure: (§3) In Solution: Solutions in ethanol are prepared at respective concentrations of photosensitive materials and photostabilizer (typically 1:1 to 1:5 in weight %). Solutions are exposed to a sun simulator (754 W/m^2, 2 MED/h,) for various durations and light absorption spectra recorded for each sample at given times. The amount of photosensitive materials remaining in solution is calculated from the ratio of their maximal absorption band (λmax), before and after irradiation.
Color Change of Menthyl Anthranilate Under Sun Simulator With and Without Diethylhexyl Syringylidene Malonate in Solution

[6] = Photostability of Guaiazulene in a shampoo formulation under sun simulator; assay type: physicochemical; settings: stabilizer 0.1% in the shampoo
Procedure: In Formulation: Samples are prepared as ultrathin films between two quartz plates as to obtain a minimum of 90% light transmission over the entire spectrum range of non absorbing chromophores. For example, ingredients which absorb only in the UV will be tested in formulation to obtain a minimum of 90% light transmission over the visible range. Samples are then irradiated under sun simulator (754 W/m^2, typically 2 MED/h) for given times and light absorption spectra recorded at each time. The remaining percentage of photosensitive compounds is calculated from the light absorption maximum (λmax) of the corresponding peak in the absorption spectrum.
as §2
Formulation Used for the Study Described in Example-5
Procedure: Combine A and heat to 70–75° C., except for U-care JR-400. Disperse U-care JR-400 in A under agitation. Add ingredients of phase B one by one at 70° C. Add phase C at 40° C. Premix Phase D and add to batch at 40° C. At 35° C. add phase E. Adjust pH (˜6.5) and viscosity with phase F.

[7] = Photostability of β carotene in lotion under sun simulator; settings: stabilizer 0.2%, β carotene 0.02%
[8] = Photostabilization of natural Tocopherols in ethanolic solution under sun simulator; assay type: physicochemical; settings: stabilizer 0.05%
Procedure: as §3, §2
Photostabilization Results of Natural Tocopherols in Ethanolic Solution

Cc1ccc(C(C)C)cc2c(C)ccc1-2 [Guaiazulene]
Relative absorption of Guaiazulene at 600 nm (%) ([1]; 0 MED): 100%
Relative absorption of Guaiazulene at 600 nm (%) ([1]; 2 MED): 83%
Relative absorption of Guaiazulene at 600 nm (%) ([1]; 5 MED): 43%
Relative absorption of Guaiazulene at 600 nm (%) ([1]; 10 MED): 6%
Guaiazulene lost when exposed to solar simulator ([1]; total energy of 100 mJ/cm^2): ~90%

O=C1O[C@H]([C@@H](O)CO)C(O)=C1O [Ascorbic acid, reference compound]
Singlet oxygen scavenging behaviour [2]: pro-oxidant
IC50% (μg/ml), singlet oxygen quenching ability [2]: Pro-oxidant

Cc1c(C)c2c(c(C)c1O)CCC(C)(C(=O)O)O2 (stereo not drawn) [Trolox C, S-hydroxy-tetramethylchroman carboxylic acid, reference compound]
IC50% (μg/ml), singlet oxygen quenching ability [2]: 88 µg/mL

CC1=C(/C=C/C(C)=C/C=C/C(C)=C/C=C/C=C(C)/C=C/C=C(C)/C=C/C2=C(C)CCCC2(C)C)C(C)(C)CCC1 [β-carotene]
Stability of β-carotene in ambient light [3]: degrades in ambient light at room temperature storage

COc1cc(C=O)ccc1O [Vanillin]
Relative absorption of Vanillin at 281 nm (%) ([4]; 0 MED): 100%
Relative absorption of Vanillin at 281 nm (%) ([4]; 2 MED): 45%
Relative absorption of Vanillin at 281 nm (%) ([4]; 5 MED): 40%
Relative absorption of Vanillin at 281 nm (%) ([4]; 10 MED): 36%
Color change of Vanillin in solution (new light absorption band around 390 nm, yellow color) [4]: a new light absorption band appears around 390 nm

CC1CCC(C(C)C)C(OC(=O)c2ccccc2N)C1 (stereo not drawn) [Menthyl anthranilate]
Color change of Menthyl anthranilate (new light absorption band around 390 nm, yellow color) [5]: a new light absorption band for menthyl antranillate appears around 390 nm

CCOS(=O)(=O)[O-].CCOS(=O)(=O)[O-].CC[N+](C)(C)CCCNC(=O)C(=Cc1cc(OC)c(O)c(OC)c1)C(=O)NCCC[N+](C)(C)CC [Eusolex HP ™, Bis-N-[3′-(N′,N′-Dimethylethylammonium)propyl]-3,5-dimethoxy-4-hydroxy benzylidene malonamide bis ethyl sulfate]
Singlet oxygen scavenging behaviour [2]: efficient singlet oxygen scavengers, better than Vitamin E
IC50% (μg/ml), singlet oxygen quenching ability [2]: 104 µg/mL

CCCCC(CC)COC(=O)C(=Cc1cc(OC)c(O)c(OC)c1)C(=O)OCC(CC)CCCC (stereo not drawn) [Diethylhexyl syringylidene malonate, Di-2-ethylhexyl 3,5 dimethoxy 4 hydroxy benzylidene malonate]
Effect of stabilizer on photostability of Guaiazulene in shampoo [6]: clear improvement in the photostability of Guaiazulene
Singlet oxygen scavenging behaviour [2]: efficient singlet oxygen scavengers, better than Vitamin E
IC50% (μg/ml), singlet oxygen quenching ability [2]: 80 µg/mL
Effect of stabilizer on photostability of β carotene in lotion [7]: clear improvement in the photostability of β carotene
Color change of Menthyl anthranilate (new light absorption band around 390 nm, yellow color) [5]: prevents any alteration/degradation of the fragrance
Color change of Vanillin in solution (new light absorption band around 390 nm, yellow color) [4]: does not appear
Effect of stabilizer on photostability of Tocopherols in solution [8]: clear improvement in the photostability of Tocopherols

COc1cc(C=C(C(C)=O)C(=O)OCCC(C)C)cc(OC)c1O [Eusolex ASA ™, Isoamyl alpha acetyl-3,5 dimethoxy 4 hydroxy benzylidene malonate]
Efficiency as an antioxidant (ranking) [2]: best efficiency as an antioxidant
Singlet oxygen scavenging behaviour [2]: efficient singlet oxygen scavengers, better than Vitamin E
IC50% (μg/ml), singlet oxygen quenching ability [2]: 61 µg/mL

— patent publication US7150876B2, “Methods for stabilizing ingredients within cosmetics, personal care and household products” (Merck Patent GmbH, priority 2004, dated 2006)
